Results from patent US11999718B2, “Pyrazole derivatives” (Aptabio Therapeutics Inc., priority 2021, dated 2024).

Tests used:
[1] = tested on: HL-60 cells differentiated into neutrophil cells; test: ROS production induced by PMA in HL-60 cells differentiated into neutrophil cells; format: cell-based; conditions: Homo sapiens, 0.5 h; differentiated HL-60 cells, compounds 0.5 uM (0.5 mM in the source) for 30 minutes, 200 nM PMA, L-012 luminescence
Excerpt: (§1) In order to confirm the effect of the compounds of Synthetic examples on ROS production from fibroblasts and specific substrate cells, ROS production was induced by stimulation of PMA (phorbol 12-myristate 13-acetate), TGF-β1, palmitate or high concentration-glucose, or the like, in HL-60 cells differentiated into neutrophil cells by DMSO treatment, NHLF (normal human lung fibroblast, Lonza), LX-2 (human hepatic stellate cells, Sigma), ARPE19 (human retinal pigment epithelial cell, ATCC), and KEL-FIB (Keloid fibroblast, ATCC) cells, and under this condition, the inhibitory effect of ROS production of the compounds of Synthetic Examples was observed.
HL-60 cells (human leukemia cells, ATCC) were suspended in a medium containing 1.25% DMSO (RPMI+10% FBS) and cultured under the condition of 5% CO2, 37° C. for 6 days, thereby inducing differentiation into neutrophil cells. […] Then, to each well comprising the cells and drug, 200 nM PMA was treated to induce ROS production, and such ROS production was measured by observing the luminescence level of each well using 100 μM L-012.

[2] = tested on: LX-2 cells; test: ROS production induced by PMA in LX-2 cells; format: cell-based, human; conditions: FIG. 1
Excerpt: as §1
(§2) The NHLF (normal human lung fibroblast, Lonza), LX-2 (human hepatic stellate cells, Sigma), ARPE19 (human retinal pigment epithelial cell, ATCC), KEL-FIB (keloid fibroblast, ATCC) cells were suspended in a culture medium containing 10% FBS and aliquoted on a 96 well plate and then cultured under the condition of 5% CO2, 37° C. for 24 hours. After pre-treating the compounds of Synthetic examples at a concentration of 10, 20, 30, 40, 60 and 80 μM for 30 minutes to 1 hour, the ROS stimulus was treated to each well containing the cells and drug. After additional culturing for 48 hours, the ROS production level was confirmed using L-012 or DCF-DA.

[3] = tested on: NHLF cells; test: ROS production induced by PMA in NHLF cells; format: cell-based, human; conditions: FIG. 1
Excerpt: as §1, §2

[4] = tested on: αSMA; test: Expression of αSMA induced by TGF-β1 (immunocytochemistry); format: cell-based, human; conditions: TGF-β1 10 ng/ml, 10 μM compound, FIG. 4
Excerpt: In order to confirm whether the compounds of Synthetic examples of the present invention affect differentiation of fibroblasts into myofibroblasts, the inhibitory effect of the compounds of Synthetic examples on increase in expression of αSMA (biomarker for confirming differentiation into myofibroblasts) induced by TGF-β1 on HFF-1 (human foreskin fibroblast, ATCC), NHLF (normal human lung fibroblast, Lonza), LX-2 (human hepatic stellate cells, Sigma), ARPE19 (human retinal pigment epithelial cell, ATCC), and KEL-FIB (Keloid fibroblast, ATCC) cells was to be observed.
Each cell was suspended in a DMEM medium containing 10% FBS and aliquoted at a concentration of 1×10^4 to 1.5×10^5 cells/well in a 4-well chamber slide (Nunc) and the compounds of Synthetic examples and TGF-β1 (both TGF β1 and TGF-β have the same meaning) were treated to prepare cells to be used for confirming αSMA expression. The confirmation of αSMA expression in the prepared cells was performed by immunocytochemistry as follows. For the cells, fixation with 4% paraformaldehyde for 10 minutes and permeabilization using 0.1% Triton x-100 were performed, and then processes of treating the primary antibody (anti-αSMA Ab, 1:200, at 4° C. for 16 hours) and secondary antibody (Alexa-594 conjugated Ab, 1:800, at a room temperature for 1 hour) against αSMA were progressed in order, and then the expression level of αSMA was observed using a fluorescence microscope.
FIG. 3 observes the effect of treating various compounds of Synthetic examples by 10, 20 and 40 μM, after inducing αSMA expression by treatment of TGF-β1(10 ng/ml) into HFF cells.

[5] = tested on: HFF-1 cells; test: Collagen gel contraction induced by TGF-β1 in HFF-1 cells; format: cell-based, human; conditions: HFF-1 cells in collagen gel, TGF-β1 10 ng/ml, 72 hours, FIG. 7
Excerpt: In order to confirm the effect of the compounds of Synthetic examples on differentiation of fibroblasts into myofibroblasts, the inhibitory effect of the compounds of Synthetic examples on the phenomenon of contraction of gel induced by interaction of human foreskin fibroblasts (HFF-1, ATCC) and collagen was observed.
The mixed solution of the HFF-1 cells and collagen (bovine type I collagen) prepared at a concentration of 3×10^6 cells/ml was aliquoted in a 24 well plate, respectively, and then cultured under the condition of 5% CO2, 37° C. for 1 hour to induce gel polymerization. Then, after suspending the gel attached on the plate from the plate using a spoon, a medium comprising TGF-β1 and Synthetic example compounds was added to each well. After culturing for 72 hours, the Synthetic example compounds were treated by 10, 20, 30, 40, 60 and 80 μM to measure the size of the gel, and thereby, the degree of contraction of the gel by drug treatment was confirmed.

[6] = tested on: IL-1β; test: Expression of IL-1β induced by LPS in human-derived fibroblasts (RT-PCR); format: cell-based; conditions: LX2, NHLF, ARPE19 and KEL-Fib cells, LPS 1 μg/ml 6 hours, 10 μM compound, FIG. 8
Description: After inoculating 2×10^5 cells in a 6 well plate and then culturing for 24 hours, they were further cultured in a serum-free culture solution for 16 hours and then the Synthetic example 1 Compound was pre-treated for 20 minutes according to each condition and inflammation reaction was induced with LPS (1 μg/ml) for 6 hours. The expression of IL-1β was confirmed using RT-PCR. Total RNA was separated from the cells using RNeasy mini kit (Qiagen), and for the separated RNA 2 ug, cDNA was synthesized using PrimeScript™ II 1st strand cDNA synthesis kit (TaKaRa) and then PCR was performed with AccuPower® PCR PreMix (Bioneer) to amplify genes. The nucleotide sequences for target primers are as follows. IL-1β (forward: 5′-[…]-3′(SEQ ID NO: 1), reverse: 5′-[…]-3′(SEQ ID NO: 2)); GAPDH (forward: 5′-[…]-3′(SEQ ID NO: 3), reverse: 5′-[…]-3′(SEQ ID NO: 4)); β-actin (forward: 5′-[…]-3′(SEQ ID NO: 5), reverse: 5′-[…]-3′(SEQ ID NO: 6)). The PCR product was confirmed by electrophoresis in 1.5% agarose gel.

[7] = tested on: IL-6; test: Expression of IL-6 in pancreatic cancer associated fibroblasts (ELISA); format: cell-based, human; conditions: P.CAF cells, 48 hours treatment, FIG. 5
Description: (§3) In order to confirm the effect of the compounds of Synthetic examples of the present invention on inflammation reaction in cancer associated fibroblasts, whether the expression of IL6 and IL8 was inhibited by the compounds of Synthetic examples in pancreatic cancer associated fibroblasts (P.CAF) was observed.
(§4) After inoculating 1.5×10^5 cells in a 6 well plate and then culturing in P.CAF complete media for 48 hours, the compounds of Synthetic examples were treated by 10, 20, 30, 40, 60 and 80 μM for 48 hours according to each condition, and then the expression of IL-6 and IL-8 was confirmed by performing ELISA with Quantkine ELISA kit (R&D systems) as follows.
(§5) 100 μl of the culture solution in which the compounds of Synthetic examples were treated for 48 hours was added to the microplate strip for analysis including a 100 μl assay diluent and left at a room temperature for 2 hours and then the contents were removed, and then it was washed with 400 μl wash buffer 4 times. 200 μl of a human IL-6 or IL-8 conjugate was added and left at a room temperature for 2 hours and then the contents were removed, and then it was washed with 400 μl wash buffer 4 times. 200 μl of substrate solution was added and left at a room temperature for 20 minutes and then 50 μl of stop solution was added, and the absorbance at a wavelength of 450 nm was measured within 30 minutes to confirm the expression level of IL-6 and IL-8.

[8] = tested on: IL-8; test: Expression of IL-8 in pancreatic cancer associated fibroblasts (ELISA); format: cell-based, human; conditions: P.CAF cells, 48 hours treatment, FIG. 6
Description: as §3, §4, §5

[9] = tested on: N27 cells; test: ROS production induced by alpha-synuclein preformed fibril (PFF) in N27 cells; format: cell-based, rat; conditions: 0.001 μM compound, 24 hours, CellROX-Deep Red, FIG. 2
Description: In order to confirm the effect of the compounds of Synthetic examples on ROS production from dopaminergic neural cells, ROS production was induced by alpha-synuclein preformed fibril (PFF) stimulation on N27 (rat dopaminergic neural cell, Sigma) cells and under this condition, the inhibitory effect of ROS production of the compounds of Synthetic examples was observed.
The N27 cells were cultured in RPMI medium containing 10% FBS, 1 μM angiotensin II, and the prepared cells were aliquoted at a concentration of 4×10^3 cells/well on a 6-well plate. The ROS production stimulus, PFF (preformed fibril) and the compounds of Synthetic examples were treated to the cells. After treating the compounds of Synthetic examples for 24 hours, fluorescence of each well was measured using CellROX-Deep Red reagent, thereby confirming the degree of ROS production.

SMILES: CN(Cc1ccccc1)C1CCc2nn(-c3ccccn3)c(O)c2C1 (centres unmarked) [Compound 1, 5-(Benzylmethylamino)-2-(pyridin-2-yl)-4,5,6,7-tetrahydro-2H-indazol-3-ol]
- inhibition at 0.5 µM [1]: > 70%
- ROS production induced by PMA [2]: inhibited
- ROS production induced by PMA [3]: inhibited
- increase in expression of αSMA induced by TGF-β1 ([4]; ARPE19 cells): significantly inhibited
- increase in expression of αSMA induced by TGF-β1 ([4]; KEL-FIB cells): significantly inhibited
- increase in expression of αSMA induced by TGF-β1 ([4]; LX-2 cells): significantly inhibited
- increase in expression of αSMA induced by TGF-β1 ([4]; NHLF cells): significantly inhibited
- contraction of the gel induced by TGF-β1 [5]: effectively inhibited
- IL-1β induced by LPS [6]: effectively inhibited in a concentration-dependent manner
- IL-6 expressed in P.CAF [7]: effectively inhibited
- IL-8 expressed in P.CAF [8]: effectively inhibited

SMILES: CN(Cc1ccc(S(C)(=O)=O)cc1)C1CCc2nn(-c3ccccn3)c(O)c2C1 (centres unmarked) [Compound 12, 5-[(4-Methanesulfonylbenzyl)methylamino]-2-(pyridin-2-yl)-4,5,6,7-tetrahydro-2H-indazol-3-ol]
- inhibition at 0.5 µM [1]: > 70%
- contraction of the gel induced by TGF-β1 [5]: effectively inhibited
- ROS production induced by PFF [9]: effectively inhibited

SMILES: CN1CCN(C2CCc3nn(-c4ccccn4)c(O)c3C2)CC1 (centres unmarked) [Compound 16, 5-(4-Methylpiperazin-1-yl)-2-(pyridin-2-yl)-4,5,6,7-tetrahydro-2H-indazol-3-ol]
- inhibition at 0.5 µM [1]: > 70%
- contraction of the gel induced by TGF-β1 [5]: effectively inhibited
- ROS production induced by PFF [9]: effectively inhibited

SMILES: OCCOCCN1CCN(C2CCc3nn(-c4ccccn4)c(O)c3C2)CC1 (centres unmarked) [Compound 17, 5-{4-[2-(2-hydroxyethoxy)-ethyl]-piperazin-1-yl}-2-pyridin-2-yl-4,5,6,7-tetrahydro-2H-indazol-3-ol]
- inhibition at 0.5 µM [1]: > 70%
- ROS production induced by PMA [2]: inhibited
- ROS production induced by PMA [3]: inhibited

SMILES: Oc1c2c(nn1-c1ccccn1)CCC(Nc1ccc(F)c(F)c1)C2 (centres unmarked) [Compound 32, 5-(3,4-Difluorophenylamino)-2-(pyridin-2-yl)-4,5,6,7-tetrahydro-2H-indazol-3-ol]
- inhibition at 0.5 µM [1]: 50 to 70%
- ROS production induced by PFF [9]: effectively inhibited

SMILES: CN(Cc1cc2ccccc2cn1)C1CCc2nn(-c3ccccn3)c(O)c2C1 (centres unmarked) [Compound 62, 5-[(Isoquinolin-3-ylmethyl)methylamino]-2-(pyridin-2-yl)-4,5,6,7-tetrahydro-2H-indazol-3-ol]
- inhibition at 0.5 µM [1]: > 70%
- contraction of the gel induced by TGF-β1 [5]: effectively inhibited
- IL-6 expressed in P.CAF [7]: effectively inhibited
- IL-8 expressed in P.CAF [8]: effectively inhibited

SMILES: CN(Cc1ccc2ncccc2c1)C1CCc2nn(-c3ccccn3)c(O)c2C1 (centres unmarked) [Compound 63, 5-[Methyl(quinolin-6-ylmethyl)amino]-2-(pyridin-2-yl)-4,5,6,7-tetrahydro-2H-indazol-3-ol]
- inhibition at 0.5 µM [1]: > 70%
- contraction of the gel induced by TGF-β1 [5]: effectively inhibited
- IL-6 expressed in P.CAF [7]: effectively inhibited
- IL-8 expressed in P.CAF [8]: effectively inhibited

SMILES: CN1CCN(C2CCc3nn(-c4ccc(C(F)(F)F)cn4)c(O)c3C2)CC1 (centres unmarked) [Compound 82, 5-(4-Methylpiperazin-1-yl)-2-(5-(trifluoromethyl)pyridin-2-yl)-4,5,6,7-tetrahydro-2H-indazol-3-ol]
- inhibition at 0.5 µM [1]: 50 to 70%
- ROS production induced by PFF [9]: effectively inhibited
